Reference: patent US10370412B2, “Beta-hairpin peptidomimetics” (Polyphor AG, priority 2013, dated 2019)
Where a SMILES comes first, the peptide text is derived from it. [ ]: non-standard residue; d: D form. Cha = N[C@@H](CC1CCCCC1)C(=O)O; Chg = N[C@H](C(=O)O)C1CCCCC1; Tle = CC(C)(C)[C@H](N)C(=O)O; dDab = NCC[C@@H](N)C(=O)O; Orn = NCCC[C@H](N)C(=O)O; Dab = NCC[C@H](N)C(=O)O

The compounds below were run on human red blood cells (hRBC). Conditions: red cells of human, 1 h.
Type: cell-based
Description: The peptides were tested for their hemolytic activity against human red blood cells (hRBC). Fresh hRBC were washed three times with phosphate buffered saline (PBS) and centrifuged for 10 min at 2000×g. Compounds (100 μg/ml) were incubated with 20% hRBC (v/v) for 1 h at 37° C. and shaking at 300 rpm. The final erythrocyte concentration was approximately 0.9×10^9 cells/ml. A value of 0% and 100% cell lyses, respectively, was determined by incubation of hRBC in the presence of PBS containing 0.001% acetic acid and 2.5% Triton X-100 in H2O, respectively. The samples were centrifuged, the supernatants were 8-fold diluted in PBS buffer and the optical densities (OD) were measured at 540 nm. The 100% lyses value (OD540H2O) gave an OD540 of approximately 0.5-1.0. Percent hemolysis was calculated as follows: (OD540peptide/OD540H2O)×100%.

Which “Hemolysis at 100 μg/ml” value does the source give for `CC(C)C[C@@H]1NC(=O)[C@@H]2CCCN2C(=O)[C@H]2CCCN2C(=O)[C@H](CO)NC(=O)[C@H](C)NC(=O)[C@H](C2CCCCC2)NC(=O)[C@H](CCN)NC(=O)[C@H](Cc2c[nH]c3ccccc23)NC(=O)[C@H](CCN)NC(=O)[C@@H](CCN)NC(=O)[C@H](CCCN)NC(=O)[C@H](CCN)NC(=O)[C@H](Cc2ccc(O)cc2)NC(=O)[C@H](Cc2c[nH]cn2)NC1=O` [compound 23, cyclo(-Leu-His-Tyr-Dab-Orn-^DDab-Dab-Trp-Dab-Chg-Ala-Ser-^DPro-Pro-)] (cyclo(LHY[Dab][Orn][dDab][Dab]W[Dab][Chg]AS[dP]P)) here?
Its value is 3%.

Which “Hemolysis at 100 μg/ml” value does the source give for `CC(C)C[C@@H]1NC(=O)[C@@H]2CCCN2C(=O)[C@H]2CCCN2C(=O)[C@H](CO)NC(=O)[C@H](C)NC(=O)[C@H](C(C)(C)C)NC(=O)[C@H](CCN)NC(=O)[C@H](Cc2c[nH]c3ccccc23)NC(=O)[C@H](CCN)NC(=O)[C@@H](CCN)NC(=O)[C@H](CCCN)NC(=O)[C@H](CCN)NC(=O)[C@H](Cc2c[nH]c3ccccc23)NC(=O)[C@H](Cc2c[nH]cn2)NC1=O` [compound 24, cyclo(-Leu-His-Trp-Dab-Orn-^DDab-Dab-Trp-Dab-tBuGly-Ala-Ser-^DPro-Pro-)] (cyclo(LHW[Dab][Orn][dDab][Dab]W[Dab][Tle]AS[dP]P)) here?
Its value is 1%.

For `CC(C)C[C@@H]1NC(=O)[C@@H]2CCCN2C(=O)[C@H]2CCCN2C(=O)[C@H](CO)NC(=O)[C@H](C)NC(=O)[C@H](C(C)(C)C)NC(=O)[C@H](CCN)NC(=O)[C@H](Cc2c[nH]c3ccccc23)NC(=O)[C@H](CCN)NC(=O)[C@@H](CCN)NC(=O)[C@H](CCCCN)NC(=O)[C@H](CCN)NC(=O)[C@H](Cc2ccc(O)cc2)NC(=O)[C@H](Cc2c[nH]cn2)NC1=O` [compound 25, cyclo(-Leu-His-Tyr-Dab-Lys-^DDab-Dab-Trp-Dab-tBuGly-Ala-Ser-^DPro-Pro-)] (cyclo(LHY[Dab]K[dDab][Dab]W[Dab][Tle]AS[dP]P)), which “Hemolysis at 100 μg/ml” value is on record?
The value was 0%.

How did the “Hemolysis at 100 μg/ml” value turn out when `CC(C)C[C@@H]1NC(=O)[C@@H]2CCCN2C(=O)[C@H]2CCCN2C(=O)[C@H](CO)NC(=O)[C@H](C)NC(=O)[C@H](CC2CCCCC2)NC(=O)[C@H](CCN)NC(=O)[C@H](Cc2c[nH]c3ccccc23)NC(=O)[C@H](CCN)NC(=O)[C@@H](CCN)NC(=O)[C@H](CCCN)NC(=O)[C@H](CCN)NC(=O)[C@H](Cc2ccc(O)cc2)NC(=O)[C@H](Cc2c[nH]c3ccccc23)NC1=O` [compound 26, cyclo(-Leu-Trp-Tyr-Dab-Orn-^DDab-Dab-Trp-Dab-Cha-Ala-Ser-^DPro-Pro-)] (cyclo(LWY[Dab][Orn][dDab][Dab]W[Dab][Cha]AS[dP]P)) was run?
The value was 1%.

For `CC(C)C[C@@H]1NC(=O)[C@@H]2CCCN2C(=O)[C@H]2CCCN2C(=O)[C@H](CO)NC(=O)[C@H](C)NC(=O)[C@H](C(C)(C)C)NC(=O)[C@H](CCN)NC(=O)[C@H](Cc2c[nH]c3ccccc23)NC(=O)[C@H](CCN)NC(=O)[C@@H](CCN)NC(=O)[C@H](CCCN)NC(=O)[C@H](CCN)NC(=O)[C@H](Cc2c[nH]c3ccccc23)NC(=O)[C@H](Cc2c[nH]c3ccccc23)NC1=O` [compound 27, cyclo(-Leu-Trp-Trp-Dab-Orn-^DDab-Dab-Trp-Dab-tBuGly-Ala-Ser-^DPro-Pro-)] (cyclo(LWW[Dab][Orn][dDab][Dab]W[Dab][Tle]AS[dP]P)), which “Hemolysis at 100 μg/ml” value is on record?
The value was 0%.

For `CC(C)C[C@@H]1NC(=O)[C@@H]2CCCN2C(=O)[C@H]2CCCN2C(=O)[C@H](CO)NC(=O)[C@H](C)NC(=O)[C@H](C(C)(C)C)NC(=O)[C@H](CCN)NC(=O)[C@H](Cc2c[nH]c3ccccc23)NC(=O)[C@H](CCN)NC(=O)[C@@H](CCN)NC(=O)[C@H](CCCN)NC(=O)[C@H](CCN)NC(=O)[C@H](Cc2ccc(O)cc2)NC(=O)[C@H](Cc2c[nH]c3ccccc23)NC1=O` [compound 28, cyclo(-Leu-Trp-Tyr-Dab-Orn-^DDab-Dab-Trp-Dab-tBuGly-Ala-Ser-^DPro-Pro-)] (cyclo(LWY[Dab][Orn][dDab][Dab]W[Dab][Tle]AS[dP]P)), which “Hemolysis at 100 μg/ml” value is on record?
Its value is 1%.

`CC(C)C[C@@H]1NC(=O)[C@@H]2CCCN2C(=O)[C@H]2CCCN2C(=O)[C@H](CO)NC(=O)[C@H](C)NC(=O)[C@H](Cc2c[nH]c3ccccc23)NC(=O)[C@H](CCN)NC(=O)[C@H](Cc2c[nH]c3ccccc23)NC(=O)[C@H](CCN)NC(=O)[C@@H](CCN)NC(=O)[C@H](CCCN)NC(=O)[C@H](CCN)NC(=O)[C@H](Cc2ccc(O)cc2)NC(=O)[C@H](Cc2c[nH]cn2)NC1=O` [compound 29, cyclo(-Leu-His-Tyr-Dab-Orn-^DDab-Dab-Trp-Dab-Trp-Ala-Ser-^DPro-Pro-)] (cyclo(LHY[Dab][Orn][dDab][Dab]W[Dab]WAS[dP]P)) was tested. Which “Hemolysis at 100 μg/ml” value did it give?
The value was 0%.

`CC(C)C[C@@H]1NC(=O)[C@@H]2CCCN2C(=O)[C@H]2CCCN2C(=O)[C@H](CO)NC(=O)[C@H](CO)NC(=O)[C@H](C(C)(C)C)NC(=O)[C@H](CCN)NC(=O)[C@H](Cc2c[nH]c3ccccc23)NC(=O)[C@H](CCN)NC(=O)[C@@H](CCN)NC(=O)[C@H](CCCN)NC(=O)[C@H](CCN)NC(=O)[C@H](Cc2ccc(O)cc2)NC(=O)[C@H](Cc2c[nH]cn2)NC1=O` [compound 30, cyclo(-Leu-His-Tyr-Dab-Orn-^DDab-Dab-Trp-Dab-tBuGly-Ser-Ser-^DPro-Pro-)] (cyclo(LHY[Dab][Orn][dDab][Dab]W[Dab][Tle]SS[dP]P)) was tested. Which “Hemolysis at 100 μg/ml” value did it give?
The value was 1%.

With `CC(C)C[C@@H]1NC(=O)[C@@H]2CCCN2C(=O)[C@H]2CCCN2C(=O)[C@H](CO)NC(=O)[C@H](CO)NC(=O)[C@H](CC2CCCCC2)NC(=O)[C@H](CCN)NC(=O)[C@H](Cc2c[nH]c3ccccc23)NC(=O)[C@H](CCN)NC(=O)[C@@H](CCN)NC(=O)[C@H](CCCCN)NC(=O)[C@H](CCN)NC(=O)[C@H](Cc2ccc(O)cc2)NC(=O)[C@H](Cc2c[nH]c3ccccc23)NC1=O` [compound 31, cyclo(-Leu-Trp-Tyr-Dab-Lys-^DDab-Dab-Trp-Dab-Cha-Ser-Ser-^DPro-Pro-)] (cyclo(LWY[Dab]K[dDab][Dab]W[Dab][Cha]SS[dP]P)) as the compound, how does the “Hemolysis at 100 μg/ml” value read?
Its value is 1%.

Which “Hemolysis at 100 μg/ml” value does the source give for `CC(C)C[C@@H]1NC(=O)[C@@H]2CCCN2C(=O)[C@H]2CCCN2C(=O)[C@H](CO)NC(=O)[C@H](CO)NC(=O)[C@H](CC2CCCCC2)NC(=O)[C@H](CCN)NC(=O)[C@H](Cc2c[nH]c3ccccc23)NC(=O)[C@H](CCN)NC(=O)[C@@H](CCN)NC(=O)[C@H](CCCN)NC(=O)[C@H](CCN)NC(=O)[C@H](Cc2ccc(O)cc2)NC(=O)[C@H](Cc2c[nH]c3ccccc23)NC1=O` [compound 32, cyclo(-Leu-Trp-Tyr-Dab-Orn-^DDab-Dab-Trp-Dab-Cha-Ser-Ser-^DPro-Pro-)] (cyclo(LWY[Dab][Orn][dDab][Dab]W[Dab][Cha]SS[dP]P)) here?
Its value is 3%.

How did the “Hemolysis at 100 μg/ml” value turn out when `CC(C)C[C@@H]1NC(=O)[C@@H]2CCCN2C(=O)[C@H]2CCCN2C(=O)[C@H](CO)NC(=O)[C@H](CC(N)=O)NC(=O)[C@H](C(C)(C)C)NC(=O)[C@H](CCN)NC(=O)[C@H](Cc2c[nH]c3ccccc23)NC(=O)[C@H](CCN)NC(=O)[C@@H](CCN)NC(=O)[C@H](CCCN)NC(=O)[C@H](CCN)NC(=O)[C@H](Cc2ccc(O)cc2)NC(=O)[C@H](Cc2ccc(O)cc2)NC1=O` [compound 33, cyclo(-Leu-Tyr-Tyr-Dab-Orn-^DDab-Dab-Trp-Dab-tBuGly-Asn-Ser-^DPro-Pro-)] (cyclo(LYY[Dab][Orn][dDab][Dab]W[Dab][Tle]NS[dP]P)) was run?
The value was 5%.
